Source: patent publication US20260174672A1, “COMPLEX FOR IMPROVING SKIN CONDITION” (LG H&H CO., LTD., priority 2022, published 2026)

Experiments:
[1] = system: type I collagen (procollagen type 1-C propeptide, PICP) in human fibroblasts; experiment: Collagen synthesis effect in vitro (PICP EIA); type: cell-based; settings: 48 hours, concentrations of Table 2, (sample − negative control) ÷ negative control × 100
Excerpt: (§1) For the evaluation of in vitro skin improvement efficacy, chondroitin sulfate (CS), glutamine (Q), arginine (R), Examples 1 and 2 (CS-R complex and CS-Q complex), and Comparative Examples 1 and 2 (CS/R mixture and CS/Q mixture) were used as culture solutions, and were ultimately included at the concentrations shown in the following Table 2 in each evaluation.
To compare the wrinkle amelioration effects of chondroitin sulfate (CS), arginine (R), and glutamine (Q), a simple mixture of chondroitin sulfate and an amino acid (CS/AA mixture), and a chondroitin sulfate-amino acid complex (CS-AA complex), the effect of promoting the synthesis of type I collagen was confirmed using skin fibroblasts. For the evaluation, procollagen type 1-C propeptide (PICP), which is typically synthesized in the highest amount in fibroblasts, was quantified.
Specifically, human fibroblasts were aliquoted at 1×10^5 cells/well in a 48-well culture plate and cultured in a Dulbecco's Modified Eagle's Medium (DMEM, Gibco) medium containing 10% fetal bovine serum (FBS) for 24 hours. Subsequently, the medium was replaced with a serum-free DMEM medium containing 2 wt % of each culture solution according to Table 2 to treat cells with an analyte for 48 hours. Next, 20 μl of the culture supernatant was taken to measure the degree of collagen increase at each concentration at 450 nm using a Procollagen Type-1-C-peptide Enzyme Immuno Assay (PICP EIA) kit.

[2] = system: hyaluronic acid production in human dermal fibroblasts; experiment: Hyaluronic acid synthesis effect in vitro (Hyaluronan ELISA); type: cell-based; settings: 24 hours, concentrations of Table 2, (sample − negative control) ÷ negative control × 100
Excerpt: as §1
To compare the skin moisturizing effects of chondroitin sulfate (CS), arginine (R), and glutamine (Q), a simple mixture of chondroitin sulfate and an amino acid (CS/AA mixture), and a chondroitin sulfate-amino acid complex (CS-AA complex), human dermal fibroblasts were used to confirm whether the production of hyaluronic acid was increased.
Specifically, fibroblasts were cultured in a DMEM medium containing 10% FBS until the cells occupied 80% of the culture dish. Subsequently, the cells were treated with each sample at a predetermined concentration according to Table 2 for 24 hours, and then the concentration of hyaluronic acid was measured using a Hyaluronan ELISA kit (R&D systems, catalog No. DY3614-05).

[3] = system: Raw 264.7 cells (NO production); experiment: Suppression of NO production in LPS-treated macrophages (Griess); type: cell-based, mouse; settings: Raw264.7 cells, sample 30 minutes then 500 ng/ml LPS 18 hours, concentrations of Table 2
Excerpt: as §1
To compare the skin soothing effects of chondroitin sulfate (CS), arginine (R), and glutamine (Q), a simple mixture of chondroitin sulfate and an amino acid (CS/AA mixture), and a chondroitin sulfate-amino acid complex (CS-AA complex), mouse macrophage cell line Raw 264.7 cells (ATCC, catalog No. CRL-2788) was used to confirm whether the production of NO was suppressed.
Specifically, Raw264.7 cells were aliquoted at 1 to 2×10^5 cells/ml in a 24-well tissue culture plate and cultured in a DMEM medium containing 10% FBS for 24 hours. The culture was carried out in a 5% CO2 incubator. Subsequently, the medium was replaced with a serum-free medium, and the cells were starved for 12 hours, and then treated with each sample at a predetermined concentration according to Table 2 for 30 minutes. After the sample treatment was completed, the cells were treated with 500 ng/ml lipopolysaccharides (LPS, SIGMA, catalog No. L43901) and then cultured for an additional 18 hours. Next, the culture supernatant was taken, transferred to a 96-well tissue culture plate and reacted with GREISS reagent (SIGMA, catalog No. G4410) at room temperature for 15 minutes, and then absorbance was measured at 540 nm using an ELISA reader. Thereafter, NO was quantified using the measured absorbance, and the reduction rate of NO produced in the experimental group compared to the positive control treated with 20 μg/ml of L-NMMA was calculated as (the value of the positive control−the value of the sample treatment group)÷the value of the negative control×100, which was used as a NO production suppression ability.

[4] = system: Zonula Occludens-1 (ZO-1) in HaCaT cells; experiment: mRNA expression of tight junction protein ZO-1 (real-time PCR); type: cell-based, human; settings: 24 hours, concentrations of Table 2, (sample − negative control) ÷ negative control × 100
Excerpt: as §1
To compare the skin barrier recovery effects of chondroitin sulfate (CS), glutamine (Q), a simple mixture of chondroitin sulfate and glutamine (CS/Q mixture), and a chondroitin sulfate-glutamine complex (CS-Q complex), it was confirmed whether the expression of Zonula Occludens-1 (ZO-1), one of the proteins that make up the tight junctions at the intercellular junctions in the skin barrier, was increased.
Specifically, human keratinocyte cell line HaCaT cells were first cultured at 37° C. in a 5% CO2 environment in a DMEM medium (Gibco, Waltham, MA, USA) supplemented with 10% fetal bovine serum (FBS, Gibco, Waltham, MA, USA), […] penicillin, and […] streptomycin. […] The concentration of the extracted RNA was quantified, and 1 μg of RNA was reacted with a cDNA synthesis kit (ET21100, PhileKorea Technology) at 42° C. for 30 minutes and 72° C. for 10 minutes to synthesize cDNA. […]

[5] = system: human fibroblasts; experiment: Cell activity effect in vitro (CCK-8); type: cell-based; settings: 48 hours, CCK-8, concentrations of Table 2, (sample − negative control) ÷ negative control × 100, in %
Excerpt: as §1
To compare the effects of chondroitin sulfate (CS), arginine (R), and glutamine (Q), a simple mixture of chondroitin sulfate and an amino acid (CS/AA mixture), and a chondroitin sulfate-amino acid complex (CS-AA complex) on skin cell activity, human fibroblast culture was used to confirm whether cell activity was increased.
Specifically, human fibroblasts were aliquoted at 5×10^3 cells/well and cultured in a DMEM medium containing 10% FBS for 24 hours. Subsequently, the culture medium was removed, and the cells were treated with each sample at a predetermined concentration according to Table 2 for 48 hours. Then, a reagent provided in a CCK-8 kit (DOJINDO, Cell Counting Kit-8, catalog No. CK04) was added, the resulting mixture was incubated for 4 hours, and then absorbance was measured at 450 nm using an ELISA reader.

[6] = Zeta-potential analysis by dynamic light scattering (Zetasizer Nano-ZS); type: physicochemical; settings: dispersed in distilled water, triplicate, several peaks printed with their share (%)
Procedure: To analyze the binding characteristics in the complexes of Examples 1 and 2, particle size analysis and zeta-potential analysis were performed. Chondroitin sulfate (CS), arginine (R), and glutamine (Q), a simple mixture of chondroitin sulfate and arginine or glutamine (CS/R or CS/Q mixture), and a complex of chondroitin sulfate and arginine or glutamine (CS-R or CS-Q complex) were analyzed by dynamic light scattering using a Zetasizer Nano-ZS (Malvern Instruments, Worcester, UK) to measure the particle size (effective dynamic diameter), particle size distribution and zeta potential of the samples dispersed on a colloid. Samples for the measurements were prepared by being dispersed in distilled water, and an automatic temperature-controlled cell with a scattering angle of 90° and software provided by the manufacturer were used. After measurement was conducted in triplicate for each sample, a zeta-potential value was calculated, and the results are shown in the following Table 1.

[7] = system: Staphylococcus epidermidis; experiment: Growth rate of beneficial skin bacterium (optical density); type: cell-based; settings: TSB medium, 30 to 37° C., 6 to 18 hours, concentrations of Table 2; relative to negative control
Procedure: To evaluate the prebiotic ability of Example 2, the degrees of enhancement in beneficial bacteria among the skin resident flora were compared before and after the CS or Example 2 treatment. Staphylococcus epidermidis was selected as a representative beneficial bacterium, and the growth rates of the beneficial bacterium were compared before and after treatment with the materials.
The growth rate of the beneficial bacterium was evaluated by the following method. A sterile liquid medium was prepared using a commercial tryptic soy broth (TSB, DFICO) medium, and a glycerol stock of S. epidermidis was inoculated into the sterile liquid TSB medium and pre-cultured at 30 to 37° C. for 6 to 18 hours. Such a pre-culture was performed once to twice. Thereafter, chondroitin sulfate (CS) and Example 2 were added to a sterile liquid TSB medium at each predetermined concentration according to Table 2, and the preculture solution was inoculated to culture cells at 30 to 37° C. for 6 to 18 hours.
After culture, the optical density (OD) immediately after inoculation and the optical density during the stationary phase of growth were measured, and the ratio of these values (growth rate) was compared. […] After the evaluation was carried out three times, the average growth rate, the standard deviation, and the like were calculated, and then the significance was verified by a t-test.

Compound | Collagen type 1 synthesis ability [1] | Hyaluronic acid synthesis ability [2] | NO production suppression ability [3] | ZO-1 expression ability [4] | Cell activity ability [5] | Zeta potential (mV) [6] [mV] | S. epidermidis growth rate (%) [7] [%]
TGF-b | 21.15 | – | – | – | – | – | –
NC(=O)CC[C@H](N)C(=O)O [Glutamine (Q), glutamine] | 2.78 | 2.8 | 20.4 | 11.0 | −11.66 | – | –
chondroitin sulfate [Chondroitin sulfate (CS)] | 3.55 | 1.8 | 25.6 | 25.0 | 8.74 | −18 | 6.081
CC1=C(/C=C/C(C)=C/C=C/C(C)=C/C(=O)O)C(C)(C)CCC1 [Retinoic acid] | – | 16.8 | – | – | – | – | –
N=C(N)NCCC[C@H](N)C(=O)O [Arginine (R), arginine] | −12.58 | −2.1 | 30.3 | – | −12.79 | −4 | –
